Tests used:
LLC-PK1 monolayers = test: Apical-to-basal transport through LLC-PK1 monolayers; type: in vitro ADME, pig
Experimental: The LLC-PK1 cell line was purchased from DS Pharma Biomedical (Osaka, Japan). Cells were maintained in Dulbecco’s modified Eagle’s medium (DMEM; Life Technologies Japan, Tokyo, Japan) supplemented with 10% (v/v) fetal bovine serum (American Type Culture Collection, Manassas, VA, USA) and antibiotics (100 U/mL penicillin and 100 μg/mL streptomycin (Life Technologies Japan)). Cells were cultured at 37 °C under an atmosphere containing 5% CO2 before the start of the experiments.
Cells were seeded at a density of 1.5 × 10^6 cells/0.25 mL on the membrane of cell culture inserts fitting 24-well plates (upper compartment, apical side; Becton Dickinson, Franklin Lakes, NJ, USA). Flat-bottom 24-well tissue culture plates (Becton Dickinson) containing 0.95 mL of culture medium per well were used as the basolateral side (bottom compartment).
LLC-PK1 monolayer formation was monitored by the measurement of TER using an EVOM-2 and Endohm24 (World Precision Instruments, Inc., Sarasota, FL, USA) according to the manufacturer’s protocol. […] [^3H]Mannitol transport was measured as described in Section 4.3 for the validation of tight junction formation because mannitol passes through the cell monolayers via the paracellular route.
Experimental procedures were performed as described previously with minor modifications. After cultivation as described above, the culture media in both compartments were replaced with Na^+ buffer (137 mM NaCl, 2.7 mM KCl, 8 mM Na2HPO4, 1.5 mM KH2PO4, 5.6 mM D-glucose, 0.9 mM CaCl2, and 0.5 mM MgCl2; pH 7.4 at 37 °C), and the cells were preincubated for 10 min at 37 °C under normal air conditions. After the buffer was removed from each compartment, the permeability experiments were started with the addition of 0.25 mL of Na^+ buffer containing radiolabeled tracers (final concentration: 81 nM for [^3H]mannitol and 10 μM for the ^14C-labeled amino acid tracers) in each upper compartment, and 0.95 mL of Na^+ buffer in each bottom compartment. The inserts were placed into new 24-well culture plates containing 0.95 mL/well of Na^+ buffer after 5, 15, 30, 60, and 90 min of incubation. Subsequently, the cells were incubated up to 120 min at 37 °C under normal air conditions.
The apical-to-basal permeability was measured by sampling an aliquot of the buffer from the upper and bottom compartment at the indicated times. To evaluate intracellular accumulation, the cells were lysed in 0.5 mL of 0.1N NaOH at room temperature following rapid washing of the cells with ice-cold Na^+ buffer. The radioactivity of each aliquot was measured with an LSC6000SC (Beckman Coulter, Inc., Brea, CA, USA) or Tri-Carb 2910TR liquid scintillation counter (PerkinElmer) using Ultima Gold (PerkinElmer).

LLC-PK1 monolayer model = test: Inhibition study of [14C]fluciclovine apical-to-basal transport, LLC-PK1 monolayer model; details: 1 mM inhibitor, 10 µM [14C]fluciclovine
Source text: Natural and synthetic amino acids were used as inhibitors: MeAIB (2-(methylamino)-isobutyric acid, for system A in the presence of Na^+); Thr (L-threonine, for system ASC in the presence of Na^+); and BCH (2-aminobicyclo[2,2,1]heptane-2-carboxylic acid, for system L in the absence of Na^+).

[1] = system: alanine-serine-cysteine transporter 2 (ASCT2); set-up: method as in PMID 23647854; details: cited from earlier work
[2] = system: sodium-coupled neutral amino acid transporter 2 (SNAT2); set-up: method as in PMID 23647854; details: cited from earlier work
[3] = system: L-type amino acid transporter 1 (LAT1); set-up: method as in PMID 23647854; details: cited from earlier work
[18F]fluciclovine uptake = system: [18F]fluciclovine uptake; set-up: method as in PMID 21536930; details: cited from earlier work
[4] = substrate: N[C@]1(C(=O)O)C[C@@H](F)C1; test: cells, lysate or membranes named; details: not significant vs control vesicles, pH 7.0

## OC[C@@H](O)[C@@H](O)[C@H](O)[C@H](O)CO [[^3H]mannitol, D-[1-^3H(N)]mannitol]
LLC-PK1 monolayers; day 1 after seeding
  mean percentage of [3H]mannitol permeation: 19.3%
LLC-PK1 monolayers; day 4 after seeding
  mean percentage of [3H]mannitol permeation: 1.23%
LLC-PK1 monolayers; day 7 after seeding
  mean percentage of [3H]mannitol permeation: 2.29%

## CNC(C)(C)C(=O)O [MeAIB, 2-(methylamino)-isobutyric acid]
LLC-PK1 monolayer model; Na+ buffer
  inhibition of [14C]fluciclovine apical-to-basal transport: no significant inhibition

## C[C@@H](O)[C@H](N)C(=O)O [Thr, L-threonine]
LLC-PK1 monolayer model; Na+ buffer
  inhibition of [14C]fluciclovine apical-to-basal transport: significant inhibition

## NC1(C(=O)O)CC2CCC1C2 (stereo not drawn) [BCH, 2-aminobicyclo[2,2,1]heptane-2-carboxylic acid]
LLC-PK1 monolayer model; Na+-free buffer
  inhibition of [14C]fluciclovine apical-to-basal transport: no significant inhibition

## N[C@]1(C(=O)O)C[C@@H](F)C1 [[^18F]fluciclovine, trans-1-amino-3-[^18F]fluorocyclobutanecarboxylic acid]
[1]
  Km: 92 µM
[2]
  Km: 222 µM
[3]
  Km: 230 µM

## Nc1ccc(C(=O)NCC(=O)O)cc1 [p-aminohippurate]
[18F]fluciclovine uptake
  inhibition of [18F]fluciclovine uptake: approximately 5%

B1: human BCRP (Homo sapiens) (protein)
chain: MSSSNVEVFIPVSQGNTNGFPATASNDLKAFTEGAVLSFHNICYRVKLKSGFLPCRKPVEKEILSNINGIMKPGLNAILGPTGGGKSSLLDVLAARKDPSGLSGDVLINGAPRPANFKCNSGYVVQDDVVMGTLTVRENLQFSAALRLATTMTNHEKNERINRVIQELGLDKVADSKVGTQFIRGVSGGERKRTSIGMELITDPSILFLDEPTTGLDSSTANAVLLLLKRMSKQGRTIIFSIHQPRYSIFKLFDSLTLLASGRLMFHGPAQEALGYFESAGYHCEAYNNPADFFLDIINGDSTAVALNREEDFKATEIIEPSKQDKPLIEKLAEIYVNSSFYKETKAELHQLSGGEKKKKITVFKEISYTTSFCHQLRWVSKRSFKNLLGNPQASIAQIIVTVVLGLVIGAIYFGLKNDSTGIQNRAGVLFFLTTNQCFSSVSAVELFVVEKKLFIHEYISGYYRVSSYFLGKLLSDLLPMRMLPSIIFTCIVYFMLGLKPKADAFFVMMFTLMMVAYSASSMALAIAAGQSVVSVATLLMTICFVFMMIFSGLLVNLTTIASWLSWLQYFSIPRYGFTALQHNEFLGQNFCPGLNATGNNPCNYATCTGEEYLVKQGIDLSPWGLWKNHVALACMIVIFLTIAYLKLLFLKKYS
[4]; other: BCRP vesicles
  Km: 1340 ± 1450 µM

B2: human MRP4 (Homo sapiens) (protein)
chain: MLPVYQEVKPNPLQDANLCSRVFFWWLNPLFKIGHKRRLEEDDMYSVLPEDRSQHLGEELQGFWDKEVLRAENDAQKPSLTRAIIKCYWKSYLVLGIFTLIEESAKVIQPIFLGKIINYFENYDPMDSVALNTAYAYATVLTFCTLILAILHHLYFYHVQCAGMRLRVAMCHMIYRKALRLSNMAMGKTTTGQIVNLLSNDVNKFDQVTVFLHFLWAGPLQAIAVTALLWMEIGISCLAGMAVLIILLPLQSCFGKLFSSLRSKTATFTDARIRTMNEVITGIRIIKMYAWEKSFSNLITNLRKKEISKILRSSCLRGMNLASFFSASKIIVFVTFTTYVLLGSVITASRVFVAVTLYGAVRLTVTLFFPSAIERVSEAIVSIRRIQTFLLLDEISQRNRQLPSDGKKMVHVQDFTAFWDKASETPTLQGLSFTVRPGELLAVVGPVGAGKSSLLSAVLGELAPSHGLVSVHGRIAYVSQQPWVFSGTLRSNILFGKKYEKERYEKVIKACALKKDLQLLEDGDLTVIGDRGTTLSGGQKARVNLARAVYQDADIYLLDDPLSAVDAEVSRHLFELCICQILHEKITILVTHQLQYLKAASQILILKDGKMVQKGTYTEFLKSGIDFGSLLKKDNEESEQPPVPGTPTLRNRTFSESSVWSQQSSRPSLKDGALESQDTENVPVTLSEENRSEGKVGFQAYKNYFRAGAHWIVFIFLILLNTAAQVAYVLQDWWLSYWANKQSMLNVTVNGGGNVTEKLDLNWYLGIYSGLTVATVLFGIARSLLVFYVLVNSSQTLHNKMFESILKAPVLFFDRNPIGRILNRFSKDIGHLDDLLPLTFLDFIQTLLQVVGVVSVAVAVIPWIAIPLVPLGIIFIFLRRYFLETSRDVKRLESTTRSPVFSHLSSSLQGLWTIRAYKAEERCQELFDAHQDLHSEAWFLFLTTSRWFAVRLDAICAMFVIIVAFGSLILAKTLDAGQVGLALSYALTLMGMFQWCVRQSAEVENMMISVERVIEYTDLEKEAPWEYQKRPPPAWPHEGVIIFDNVNFMYSPGGPLVLKHLTALIKSQEKVGIVGRTGAGKSSLISALFRLSEPEGKIWIDKILTTEIGLHDLRKKMSIIPQEPVLFTGTMRKNLDPFNEHTDEELWNALQEVQLKETIEDLPGKMDTELAESGSNFSVGQRQLVCLARAILRKNQILIIDEATANVDPRTDELIQKKIREKFAHCTVLTIAHRLNTIIDSDKIMVLDSGRLKEYDEPYVLLQNKESLFYKMVQQLGKAEAAALTETAKQVYFKRNYPHIGHTDHMVTNTSNGQPSTLTIFETAL
[4]; other: MRP4 vesicles
  Km: 15300 ± 44100 µM

From article PMC5085761 (International Journal of Molecular Sciences, 2016)
